Laboratory results from patent US11884675B2, “Heterocyclic compounds as triggering receptor expressed on myeloid cells 2 agonists and methods of use” (AMGEN INC., priority 2020, dated 2024).

Biological target: hTREM2 (Homo sapiens, UniProt Q9NZC2)
Assay: TREM2 activity by cellular Syk phosphorylation (AlphaScreen/AlphaLISA) in TREM2/DAP12-HEK cells, used for Examples 1-305
Assay type: cell-based
Set-up: expressed in transfected cells
Settings: HEK293 Cells
Method in brief: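 Single-cell-cloned HEK293 cells overexpressing TREM2 and DAP12, seeded 20 h, exposed to test articles (1% final DMSO) for 45 min at room temperature. Lysates read for phospho-Syk (Tyr525/526) vs total Syk by AlphaScreen. Signal normalised as percent of control between isotype IgG and 100 nM anti-TREM2 antibody; 4-parameter logistic fit.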

hTREM2, sequence (Q9NZC2 19-230): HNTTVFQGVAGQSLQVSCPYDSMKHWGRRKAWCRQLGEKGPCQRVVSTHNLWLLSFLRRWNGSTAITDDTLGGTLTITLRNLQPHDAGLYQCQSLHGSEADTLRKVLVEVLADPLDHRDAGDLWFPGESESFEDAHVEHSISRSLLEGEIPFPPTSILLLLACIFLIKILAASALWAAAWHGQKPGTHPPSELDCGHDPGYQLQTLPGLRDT
hTREM2, sequence (O43914 22-113 partner): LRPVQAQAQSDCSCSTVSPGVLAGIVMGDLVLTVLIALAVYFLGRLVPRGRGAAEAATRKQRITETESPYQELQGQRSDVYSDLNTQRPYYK

Row | EC50 | hTREM2 Emax | Compound
1 | 50 to 500 nM | +++ (Emax>150 and ≤250) | Cc1cnc2c(-c3ccc(Cl)cc3F)cc([C@H]3CCO[C@@H](c4cnn(C)c4)C3)nc2n1 (single isomer, unassigned) [Example 185]
2 | 50 to 500 nM | +++ (Emax>150 and ≤250) | COc1cc([C@H]2CN(c3cc4nc(C)cnc4c(-c4ccc(Cl)cc4F)n3)CCO2)ccn1 [Example 78, 5-(4-chloro-2-fluorophenyl)-7-((2S)-2-(2-methoxy-4-pyridinyl)-4-morpholinyl)-2-methylpyrido[3,4-b]pyrazine]
3 | 50 to 500 nM | +++ (Emax>150 and ≤250) | Cc1ccc2c(-c3ccc(F)cc3F)nc(N3CCO[C@@H](c4cnn(C)c4)C3)nc2n1 [Example 91, 4-(2,4-difluorophenyl)-7-methyl-2-((2S)-2-(1-methyl-1H-pyrazol-4-yl)-4-morpholinyl)pyrido[2,3-d]pyrimidine]
4 | 50 to 500 nM | ++++ (Emax>250) | Cc1cnc2c(-c3ccc(Cl)cc3F)nc(N3CCO[C@@H](c4cnn(C5CC5)c4)C3)cc2n1 [Example 76, 5-(4-chloro-2-fluorophenyl)-7-((2S)-2-(1-cyclopropyl-1H-pyrazol-4-yl)-4-morpholinyl)-2-methylpyrido[3,4-b]pyrazine]
5 | ≤ 50 nM | ++++ (Emax>250) | Cc1cc([C@@H]2CN(c3nc(-c4ccc(Cl)cc4F)c4cc(C)c(C)nc4n3)CCO2)cnn1 (single isomer, unassigned) [Example 105]
6 | ≤ 50 nM | +++ (Emax>150 and ≤250) | Cc1ccc2c(-c3ccc(Cl)cc3F)nc(N3CCO[C@@H](c4cnn(C)c4)C3)nc2n1 [Example 84, 4-(4-chloro-2-fluorophenyl)-7-methyl-2-((2S)-2-(1-methyl-1H-pyrazol-4-yl)-4-morpholinyl)pyrido[2,3-d]pyrimidine]
7 | ≤ 50 nM | ++++ (Emax>250) | Cc1cc2c(-c3ccc(F)cc3F)nc(N3CCO[C@@H](c4cnn(C)c4)C3)nc2nc1C [Example 166, 4-(2,4-difluorophenyl)-6,7-dimethyl-2((2S)-2-(1-methyl-1H-pyrazol-4-yl)-4-morpholinyl) pyrido[2,3-d]pyrimidine]
8 | ≤ 50 nM | ++++ (Emax>250) | Cc1cc([C@H]2CN(c3nc(-c4ccc(Cl)cc4F)c4ccc(C)nc4n3)CCO2)cnn1 (single isomer, unassigned) [Example 86]
9 | 500 to 3000 nM | + (Emax>45 and ≤100) | C[C@H]1CN(c2cc3c(c(-c4ccc(Cl)cc4F)n2)CN(C)C3=O)CCO1 [Example 118, 4-(4-chloro-2-fluorophenyl)-2-methyl-6-((2S)-2-methyl-4-morpholinyl)-2,3-dihydro-1H-pyrrolo[3,4-c]pyridin-1-one]

More lines, now with the values behind:

Row | Compound | EC50 | hTREM2 Emax
10 | Cc1nc2nc(N3CCO[C@@H](c4cnn(C)c4)C3)nc([C@H]3C[C@H](C(F)(F)F)C3)c2nc1C [Example 42, 6,7-dimethyl-2-((2S)-2-(1-methyl-1H-pyrazol-4-yl)-4-morpholinyl)-4-(trans-3-(trifluoromethyl)cyclobutyl)pteridine] | ≤ 50 nM | ++ (Emax>100 and ≤150)
11 | Cc1cc2c(nc(N3CCO[C@@H](c4cnn(C)c4)C3)nc2[C@H]2C[C@H](C(F)(F)F)C2)nc1C [Example 112, 6,7-dimethyl-2-((2S)-2-(1-methyl-1H-pyrazol-4-yl)-4-morpholinyl)-4-(trans-3-(trifluoromethyl)cyclobutyl)pyrido[2,3-d]pyrimidine] | ≤ 50 nM | +++ (Emax>150 and ≤250)
12 | Cc1nc2nc(N3CCO[C@@H](c4cnn(C)c4)C3)nc(-c3ccc(F)cn3)c2nc1C [Example 292, (S)-4-(4-(5-fluoropyridin-2-yl)-6,7-dimethylpteridin-2-yl)-2-(1-methyl-1H-pyrazol-4-yl)morpholine] | 500 to 3000 nM | +++ (Emax>150 and ≤250)
13 | Cc1nc2nc(N3CCO[C@@H](c4cnn(C5CC5)c4)C3)nc(C34CC(C(F)(F)F)(C3)C4)c2nc1C [Example 64, 2-((2S)-2-(1-cyclopropyl-1H-pyrazol-4-yl)-4-morpholinyl)-6,7-dimethyl-4-(3-(trifluoromethyl)bicyclo[1.1.1]pentan-1-yl)pteridine] | ≤ 50 nM | +++ (Emax>150 and ≤250)
14 | Cc1nc2nc(N3CCO[C@@H](c4cnn(C)c4)C3)nc(-c3ccc(F)c(F)c3F)c2nc1C [Example 61, 6,7-dimethyl-2-((2S)-2-(1-methyl-1H-pyrazol-4-yl)-4-morpholinyl)-4-(2,3,4-trifluorophenyl)pteridine] | ≤ 50 nM | +++ (Emax>150 and ≤250)
15 | Cc1nc2nc(N3CCO[C@@H](c4cnn(C)c4)C3)nc(C3CCC4(CC3)CC4)c2nc1C [Example 137, 6,7-dimethyl-2-((2S)-2-(1-methyl-1H-pyrazol-4-yl)-4-morpholinyl)-4-(spiro[2.5]octan-6-yl)pteridine] | ≤ 50 nM | +++ (Emax>150 and ≤250)
16 | Cc1ccc(-c2nc([C@@H]3CCO[C@H](c4cnn(C)c4)C3)cc3nc(C)c(C)nc23)c(F)c1 [Example 258, 5-(2-fluoro-4-methylphenyl)-2,3-dimethyl-7-((2S,4R)-2-(1-methyl-1H-pyrazol-4-yl)tetrahydro-2H-pyran-4-yl)pyrido[3,4-b]pyrazine] | 500 to 3000 nM | +++ (Emax>150 and ≤250)
17 | Cc1cc([C@H]2CN(c3nc(-c4ccc(C(F)(F)F)nc4)c4nc(C)c(C)nc4n3)CCO2)ccn1 [Example 293, (S)-4-(6,7-dimethyl-4-(6-(trifluoromethyl)pyridin-3-yl)pteridin-2-yl)-2-(2-methylpyridin-4-yl)morpholine] |  | +++ (Emax>150 and ≤250)
18 | Cc1cc([C@H]2C[C@@H](c3nc(-c4ccc(F)cc4F)c4nc(C)c(C)nc4n3)CCO2)ccn1 (single isomer, unassigned) [Example 211] | ≤ 50 nM | ++++ (Emax>250)
19 | Cc1cc([C@H]2CN(c3nc4nc(C)ccc4c([C@H]4C[C@H](C(F)(F)F)C4)n3)CCO2)ccn1 [Example 99, 7-methyl-2-((2S)-2-(2-methyl-4-pyridinyl)-4-morpholinyl)-4-(trans-3-(trifluoromethyl)cyclobutyl)pyrido[2,3-d]pyrimidine] | ≤ 50 nM | + (Emax>45 and ≤100)
20 | COC1CN(c2nc(N3CCO[C@@H](c4cnn(C)c4)C3)nc3nc(C)c(C)nc23)C1 [Example 28, 4-(3-methoxy-1-azetidinyl)-6,7-dimethyl-2-((2S)-2-(1-methyl-1H-pyrazol-4-yl)-4-morpholinyl)pteridine] | 500 to 3000 nM | +++ (Emax>150 and ≤250)
21 | Cc1ccc2c(n1)nc(N1CCO[C@@H](c3cnn(C4CC4)c3)C1)nc2[C@H]1C[C@H](C(F)(F)F)C1 [Example 98, 2-((2S)-2-(1-cyclopropyl-1H-pyrazol-4-yl)-4-morpholinyl)-7-methyl-4-(trans-3-(trifluoromethyl)cyclobutyl)pyrido[2,3-d]pyrimidine] | 50 to 500 nM | ++ (Emax>100 and ≤150)
22 | Cc1nc2nc(N3CCC(F)(F)[C@H](c4cnn(C)c4)C3)nc(-c3ccc(Cl)cc3F)c2nc1C (single isomer, unassigned) [Example 124] | ≤ 50 nM | ++++ (Emax>250)
